PubChem BioAssay (NCI)
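Dose response: 5 concentrations. Exposure: 48 h. Format: 96-well plates. Endpoint: linear interpolation; highest concentration if not reached. The concentration for full growth arrest is given as TGI.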

Columns and labels:
Assay in all cases: NCI-60 cell line screen, 48 h
786-0 renal = tested on: 786-0 renal
A498 renal = tested on: A498 renal
A549 NSCLC = tested on: A549 NSCLC
ACHN renal = tested on: ACHN renal
CAKI-1 renal = tested on: CAKI-1 renal
CCRF-CEM leukemia = tested on: CCRF-CEM leukemia
COLO 205 colon = tested on: COLO 205 colon
DLD-1 colon = tested on: DLD-1 colon
DMS 114 small cell lung = tested on: DMS 114 small cell lung
EKVX NSCLC = tested on: EKVX NSCLC
HCC-2998 colon = tested on: HCC-2998 colon
HCT-116 colon = tested on: HCT-116 colon
HCT-15 colon = tested on: HCT-15 colon
HL-60(TB) leukemia = tested on: HL-60(TB) leukemia
HOP-18 NSCLC = tested on: HOP-18 NSCLC
HOP-62 NSCLC = tested on: HOP-62 NSCLC
HOP-92 NSCLC = tested on: HOP-92 NSCLC
HT29 colon = tested on: HT29 colon
IGROV1 ovarian = tested on: IGROV1 ovarian
K-562 leukemia = tested on: K-562 leukemia
KM12 colon = tested on: KM12 colon
KM20L2 colon = tested on: KM20L2 colon
LOX IMVI melanoma = tested on: LOX IMVI melanoma
LXFL 529 NSCLC = tested on: LXFL 529 NSCLC
M14 melanoma = tested on: M14 melanoma
M19-MEL melanoma = tested on: M19-MEL melanoma
MALME-3M melanoma = tested on: MALME-3M melanoma
MOLT-4 leukemia = tested on: MOLT-4 leukemia
NCI-H226 lung = tested on: NCI-H226 lung
NCI-H23 lung = tested on: NCI-H23 lung
NCI-H460 lung = tested on: NCI-H460 lung
NCI-H522 lung = tested on: NCI-H522 lung
OVCAR-3 ovarian = tested on: OVCAR-3 ovarian
OVCAR-4 ovarian = tested on: OVCAR-4 ovarian
OVCAR-5 ovarian = tested on: OVCAR-5 ovarian
OVCAR-8 ovarian = tested on: OVCAR-8 ovarian
RPMI-8226 leukemia = tested on: RPMI-8226 leukemia
RXF 393 renal = tested on: RXF 393 renal
SF-268 CNS = tested on: SF-268 CNS
SF-295 CNS = tested on: SF-295 CNS
SF-539 CNS = tested on: SF-539 CNS
SK-MEL-2 melanoma = tested on: SK-MEL-2 melanoma
SK-MEL-28 melanoma = tested on: SK-MEL-28 melanoma
SK-MEL-5 melanoma = tested on: SK-MEL-5 melanoma
SK-OV-3 ovarian = tested on: SK-OV-3 ovarian
SN12C renal = tested on: SN12C renal
SNB-19 CNS = tested on: SNB-19 CNS
SNB-75 CNS = tested on: SNB-75 CNS
SNB-78 CNS = tested on: SNB-78 CNS
SR leukemia = tested on: SR leukemia
SW-620 colon = tested on: SW-620 colon
TK-10 renal = tested on: TK-10 renal
U251 CNS = tested on: U251 CNS
UACC-257 melanoma = tested on: UACC-257 melanoma
UACC-62 melanoma = tested on: UACC-62 melanoma
UO-31 renal = tested on: UO-31 renal
XF 498 CNS = tested on: XF 498 CNS
DMS 273 small cell lung = tested on: DMS 273 small cell lung

Compound: OCCCNc1ccnc2cc(Cl)ccc12
- TGI (786-0 renal): > 100 µM
- TGI (A498 renal): > 100 µM
- TGI (A549 NSCLC): > 100 µM
- TGI (ACHN renal): > 100 µM
- TGI (CAKI-1 renal): > 100 µM
- TGI (CCRF-CEM leukemia): > 100 µM
- TGI (COLO 205 colon): > 100 µM
- TGI (DLD-1 colon): > 100 µM
- TGI (DMS 114 small cell lung): > 100 µM
- TGI (EKVX NSCLC): > 100 µM
- TGI (HCC-2998 colon): > 100 µM
- TGI (HCT-116 colon): > 100 µM
- TGI (HCT-15 colon): > 100 µM
- TGI (HL-60(TB) leukemia): > 100 µM
- TGI (HOP-18 NSCLC): > 100 µM
- TGI (HOP-62 NSCLC): > 100 µM
- TGI (HOP-92 NSCLC): > 100 µM
- TGI (HT29 colon): > 100 µM
- TGI (IGROV1 ovarian): > 100 µM
- TGI (K-562 leukemia): > 100 µM
- TGI (KM12 colon): > 100 µM
- TGI (KM20L2 colon): > 100 µM
- TGI (LOX IMVI melanoma): > 100 µM
- TGI (LXFL 529 NSCLC): > 100 µM
- TGI (M14 melanoma): > 100 µM
- TGI (M19-MEL melanoma): > 100 µM
- TGI (MALME-3M melanoma): > 100 µM
- TGI (MOLT-4 leukemia): > 100 µM
- TGI (NCI-H226 lung): > 100 µM
- TGI (NCI-H23 lung): > 100 µM
- TGI (NCI-H460 lung): > 100 µM
- TGI (NCI-H522 lung): > 100 µM
- TGI (OVCAR-3 ovarian): > 100 µM
- TGI (OVCAR-4 ovarian): > 100 µM
- TGI (OVCAR-5 ovarian): > 100 µM
- TGI (OVCAR-8 ovarian): > 100 µM
- TGI (RPMI-8226 leukemia): > 100 µM
- TGI (RXF 393 renal): > 100 µM
- TGI (SF-268 CNS): > 100 µM
- TGI (SF-295 CNS): > 100 µM
- TGI (SF-539 CNS): > 100 µM
- TGI (SK-MEL-2 melanoma): > 100 µM
- TGI (SK-MEL-28 melanoma): > 100 µM
- TGI (SK-MEL-5 melanoma): > 100 µM
- TGI (SK-OV-3 ovarian): > 100 µM
- TGI (SN12C renal): > 100 µM
- TGI (SNB-19 CNS): > 100 µM
- TGI (SNB-75 CNS): > 100 µM
- TGI (SNB-78 CNS): > 100 µM
- TGI (SR leukemia): > 100 µM
- TGI (SW-620 colon): > 100 µM
- TGI (TK-10 renal): > 100 µM
- TGI (U251 CNS): > 100 µM
- TGI (UACC-257 melanoma): > 100 µM
- TGI (UACC-62 melanoma): > 100 µM
- TGI (UO-31 renal): > 100 µM
- TGI (XF 498 CNS): > 100 µM

Compound: O=C(Nc1cccc(C(F)(F)F)c1)C(=O)C1NC(=S)NC1=O (stereo unspecified)
- TGI (786-0 renal): > 100 µM
- TGI (A498 renal): > 100 µM
- TGI (A549 NSCLC): > 100 µM
- TGI (ACHN renal): > 100 µM
- TGI (CAKI-1 renal): > 100 µM
- TGI (CCRF-CEM leukemia): > 100 µM
- TGI (COLO 205 colon): > 100 µM
- TGI (DLD-1 colon): > 100 µM
- TGI (DMS 114 small cell lung): > 100 µM
- TGI (DMS 273 small cell lung): > 100 µM
- TGI (EKVX NSCLC): > 100 µM
- TGI (HCC-2998 colon): > 100 µM
- TGI (HCT-116 colon): > 100 µM
- TGI (HCT-15 colon): > 100 µM
- TGI (HL-60(TB) leukemia): > 100 µM
- TGI (HOP-18 NSCLC): > 100 µM
- TGI (HOP-62 NSCLC): > 100 µM
- TGI (HOP-92 NSCLC): > 100 µM
- TGI (HT29 colon): > 100 µM
- TGI (IGROV1 ovarian): > 100 µM
- TGI (K-562 leukemia): > 100 µM
- TGI (KM12 colon): > 100 µM
- TGI (KM20L2 colon): > 100 µM
- TGI (LOX IMVI melanoma): > 100 µM
- TGI (LXFL 529 NSCLC): > 100 µM
- TGI (M14 melanoma): > 100 µM
- TGI (M19-MEL melanoma): > 100 µM
- TGI (MALME-3M melanoma): > 100 µM
- TGI (MOLT-4 leukemia): > 100 µM
- TGI (NCI-H226 lung): > 100 µM
- TGI (NCI-H23 lung): > 100 µM
- TGI (NCI-H460 lung): > 100 µM
- TGI (OVCAR-3 ovarian): > 100 µM
- TGI (OVCAR-4 ovarian): > 100 µM
- TGI (OVCAR-5 ovarian): > 100 µM
- TGI (OVCAR-8 ovarian): > 100 µM
- TGI (RPMI-8226 leukemia): > 100 µM
- TGI (RXF 393 renal): > 100 µM
- TGI (SF-268 CNS): > 100 µM
- TGI (SF-295 CNS): > 100 µM
- TGI (SF-539 CNS): > 100 µM
- TGI (SK-MEL-2 melanoma): > 100 µM
- TGI (SK-MEL-28 melanoma): > 100 µM
- TGI (SK-MEL-5 melanoma): > 100 µM
- TGI (SK-OV-3 ovarian): > 100 µM
- TGI (SN12C renal): > 100 µM
- TGI (SNB-19 CNS): > 100 µM
- TGI (SNB-75 CNS): > 100 µM
- TGI (SNB-78 CNS): > 100 µM
- TGI (SR leukemia): > 100 µM
- TGI (SW-620 colon): 36.5 µM
- TGI (TK-10 renal): > 100 µM
- TGI (UACC-257 melanoma): > 100 µM
- TGI (UACC-62 melanoma): > 100 µM
- TGI (UO-31 renal): > 100 µM

Compound: O=C1CC2(CCC3=C(O2)c2ccccc2NC(=O)C3)C(=O)c2ccccc2N1 (stereo unspecified)
- TGI (786-0 renal): > 100 µM
- TGI (A549 NSCLC): > 100 µM
- TGI (ACHN renal): > 100 µM
- TGI (CCRF-CEM leukemia): > 100 µM
- TGI (COLO 205 colon): > 100 µM
- TGI (DMS 114 small cell lung): > 100 µM
- TGI (DMS 273 small cell lung): > 100 µM
- TGI (EKVX NSCLC): > 100 µM
- TGI (HCT-116 colon): > 100 µM
- TGI (HCT-15 colon): > 100 µM
- TGI (HL-60(TB) leukemia): > 100 µM
- TGI (HOP-62 NSCLC): > 100 µM
- TGI (HT29 colon): > 100 µM
- TGI (IGROV1 ovarian): > 100 µM
- TGI (K-562 leukemia): > 100 µM
- TGI (KM12 colon): > 100 µM
- TGI (KM20L2 colon): > 100 µM
- TGI (LOX IMVI melanoma): > 100 µM
- TGI (LXFL 529 NSCLC): > 100 µM
- TGI (M14 melanoma): > 100 µM
- TGI (M19-MEL melanoma): > 100 µM
- TGI (MALME-3M melanoma): > 100 µM
- TGI (MOLT-4 leukemia): > 100 µM
- TGI (NCI-H226 lung): > 100 µM
- TGI (NCI-H23 lung): > 100 µM
- TGI (NCI-H460 lung): > 100 µM
- TGI (NCI-H522 lung): > 100 µM
- TGI (OVCAR-3 ovarian): > 100 µM
- TGI (OVCAR-4 ovarian): > 100 µM
- TGI (OVCAR-5 ovarian): > 100 µM
- TGI (OVCAR-8 ovarian): > 100 µM
- TGI (RPMI-8226 leukemia): > 100 µM
- TGI (RXF 393 renal): > 100 µM
- TGI (SF-268 CNS): > 100 µM
- TGI (SF-295 CNS): > 100 µM
- TGI (SF-539 CNS): > 100 µM
- TGI (SK-MEL-2 melanoma): > 100 µM
- TGI (SK-MEL-28 melanoma): > 100 µM
- TGI (SK-MEL-5 melanoma): > 100 µM
- TGI (SN12C renal): > 100 µM
- TGI (SNB-19 CNS): > 100 µM
- TGI (SNB-75 CNS): > 100 µM
- TGI (SNB-78 CNS): > 100 µM
- TGI (SW-620 colon): > 100 µM
- TGI (TK-10 renal): > 100 µM
- TGI (U251 CNS): > 100 µM
- TGI (UACC-62 melanoma): > 100 µM
- TGI (UO-31 renal): > 100 µM
- TGI (XF 498 CNS): > 100 µM
